ChEMBL document CHEMBL4414672, “Synthesis of certain benzothieno[3,2-d]pyrimidine derivatives as a selective SIRT2 inhibitors” (Eur J Med Chem, 2020)
Converted amounts (≈) assume the structure as drawn.

Columns and labels:
[1] = system: MCF7; assay: Cytotoxicity against human MCF7 cells assessed as reduction in cell viability after 24 hrs by MTT assay; format: functional, cell-based; settings: MCF7, 24 h
[2] = system: UO-31; assay: Cytotoxicity against human UO31 cells assessed as reduction in cell viability after 24 hrs by MTT assay; format: functional, cell-based; settings: UO-31, 24 h
[3] = biological target: T1, NAD-dependent protein deacetylase sirtuin-2 (Homo sapiens, UniProt Q8IXJ6); assay: Inhibition of SIRT2 (unknown origin) using fluorogenic substrate assessed as deacetylase activity incubated for 45 mins by fluorescence assay
T1 sequence (Q8IXJ6 whole entry): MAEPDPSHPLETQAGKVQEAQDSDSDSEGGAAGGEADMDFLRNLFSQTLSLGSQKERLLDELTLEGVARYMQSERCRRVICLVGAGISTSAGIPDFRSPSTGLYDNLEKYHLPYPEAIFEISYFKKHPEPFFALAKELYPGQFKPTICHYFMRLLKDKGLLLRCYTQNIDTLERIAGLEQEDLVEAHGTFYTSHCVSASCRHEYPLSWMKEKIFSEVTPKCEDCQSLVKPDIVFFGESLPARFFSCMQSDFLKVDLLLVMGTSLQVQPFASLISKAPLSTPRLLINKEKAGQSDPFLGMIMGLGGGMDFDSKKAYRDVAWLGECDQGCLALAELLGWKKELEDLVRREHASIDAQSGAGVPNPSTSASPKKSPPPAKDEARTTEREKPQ

[4] = system: CCRF-CEM; assay: Growth inhibition of human CCRF-CEM cells at 10^-5 M incubated for 48 hrs by sulforhodamine B assay; format: functional; settings: read-out: GI
[5] = system: A549; assay: Growth inhibition of human A549/ATCC cells at 10^-5 M incubated for 48 hrs by sulforhodamine B assay; format: functional; settings: A549, 48 h, read-out: GI
[6] = system: EKVX; assay: Growth inhibition of human EKVX cells at 10^-5 M incubated for 48 hrs by sulforhodamine B assay; format: functional; settings: read-out: GI
[7] = system: HOP-92; assay: Growth inhibition of human HOP92 cells at 10^-5 M incubated for 48 hrs by sulforhodamine B assay; format: functional; settings: HOP-92, 48 h, read-out: GI
[8] = system: NCI-H522; assay: Growth inhibition of human NCI-H522 cells at 10^-5 M incubated for 48 hrs by sulforhodamine B assay; format: functional; settings: NCI-H522, 48 h, read-out: GI
[9] = system: HCC 2998; assay: Growth inhibition of human HCC2998 cells at 10^-5 M incubated for 48 hrs by sulforhodamine B assay; format: functional; settings: HCC 2998, 48 h, read-out: GI
[10] = system: HCT-116; assay: Growth inhibition of human HCT116 cells at 10^-5 M incubated for 48 hrs by sulforhodamine B assay; format: functional; settings: HCT-116, 48 h, read-out: GI
[11] = system: HT-29; assay: Growth inhibition of human HT-29 cells at 10^-5 M incubated for 48 hrs by sulforhodamine B assay; format: functional; settings: HT-29, 48 h, read-out: GI
[12] = system: KM12; assay: Growth inhibition of human KM12 cells at 10^-5 M incubated for 48 hrs by sulforhodamine B assay; format: functional; settings: KM12, 48 h, read-out: GI
[13] = system: SNB-75; assay: Growth inhibition of human SNB75 cells at 10^-5 M incubated for 48 hrs by sulforhodamine B assay; format: functional; settings: SNB-75, 48 h, read-out: GI
[14] = system: U-251; assay: Growth inhibition of human U251 cells at 10^-5 M incubated for 48 hrs by sulforhodamine B assay; format: functional; settings: U-251, 48 h, read-out: GI
[15] = system: LOX IMVI; assay: Growth inhibition of human LOXIMVI cells at 10^-5 M incubated for 48 hrs by sulforhodamine B assay; format: functional; settings: read-out: GI
[16] = system: MDA-MB-435; assay: Growth inhibition of human MDA-MB-435 cells at 10^-5 M incubated for 48 hrs by sulforhodamine B assay; format: functional; settings: MDA-MB-435, 48 h, read-out: GI
[17] = system: UACC-257; assay: Growth inhibition of human UACC257 cells at 10^-5 M incubated for 48 hrs by sulforhodamine B assay; format: functional; settings: UACC-257, 48 h, read-out: GI
[18] = system: OVCAR-3; assay: Growth inhibition of human OVCAR3 cells at 10^-5 M incubated for 48 hrs by sulforhodamine B assay; format: functional; settings: OVCAR-3, 48 h, read-out: GI
[19] = system: OVCAR-4; assay: Growth inhibition of human OVCAR4 cells at 10^-5 M incubated for 48 hrs by sulforhodamine B assay; format: functional; settings: OVCAR-4, 48 h, read-out: GI
[20] = system: OVCAR-5; assay: Growth inhibition of human OVCAR5 cells at 10^-5 M incubated for 48 hrs by sulforhodamine B assay; format: functional; settings: OVCAR-5, 48 h, read-out: GI
[21] = system: NCI/ADR-RES; assay: Growth inhibition of human NCI/ADR-RES cells at 10^-5 M incubated for 48 hrs by sulforhodamine B assay; format: functional; settings: read-out: GI
[22] = system: SN12C; assay: Growth inhibition of human SN12C cells at 10^-5 M incubated for 48 hrs by sulforhodamine B assay; format: functional; settings: read-out: GI
[23] = system: DU-145; assay: Growth inhibition of human DU145 cells at 10^-5 M incubated for 48 hrs by sulforhodamine B assay; format: functional; settings: DU-145, 48 h, read-out: GI
[24] = system: MCF7; assay: Growth inhibition of human MCF7 cells at 10^-5 M incubated for 48 hrs by sulforhodamine B assay; format: functional; settings: MCF7, 48 h, read-out: GI

Row | Compound | IC50 [1] [µg/mL] | IC50 [2] [µg/mL] | inhibition of growth at 10 µM [4] [%] | inhibition of growth at 10 µM [5] [%] | inhibition of growth at 10 µM [6] [%] | inhibition of growth at 10 µM [7] [%] | inhibition of growth at 10 µM [8] [%] | inhibition of growth at 10 µM [9] [%] | inhibition of growth at 10 µM [10] [%] | inhibition of growth at 10 µM [11] [%] | inhibition of growth at 10 µM [12] [%] | inhibition of growth at 10 µM [13] [%] | inhibition of growth at 10 µM [14] [%] | inhibition of growth at 10 µM [15] [%] | inhibition of growth at 10 µM [16] [%] | inhibition of growth at 10 µM [17] [%] | inhibition of growth at 10 µM [18] [%] | inhibition of growth at 10 µM [19] [%] | inhibition of growth at 10 µM [20] [%] | inhibition of growth at 10 µM [21] [%] | further results
1 | O=[N+]([O-])c1cccc(C2c3sc4ccc(Cl)cc4c3N=C3NN=CN32)c1 (configuration not stated) | 9.8 (≈ 25.5 µM) | 26.2 (≈ 68.4 µM) | -13.4 | -0.61 | 15 | -7.25 | 1.55 | -6.88 | 3.22 | -15.1 | 3.7 | -4.8 | -0.13 | 6.72 | -17.5 | -3.45 | -0.5 | 0.93 | -1.09 | 6.44 | IC50 [3]: 6.64 µM; inhibition of growth at 10 µM [22]: -37.5%; inhibition of growth at 10 µM [23]: 28.2%; inhibition of growth at 10 µM [24]: 16.9%
2 | NNC1=Nc2c(sc3ccc(Cl)cc23)C(c2cccc([N+](=O)[O-])c2)N1 (configuration not stated) | 16.4 (≈ 43.7 µM) | 18.3 (≈ 49.1 µM) | -19.8 | -4.45 | 16.9 | -12.8 | 7.13 | -1.26 | -0.35 | -13.5 | 1.7 | 10.7 | -3.56 | 2.22 | -7.56 | -0.19 | -1.38 | 1.81 | -5.19 | -3.64 | inhibition of growth at 10 µM [22]: 1.02%; inhibition of growth at 10 µM [23]: -9.18%; inhibition of growth at 10 µM [24]: 18.1%
3 | NC(=O)CSC1=Nc2c(sc3ccc(Cl)cc23)C(c2cccc([N+](=O)[O-])c2)N1 (configuration not stated) | 5.06 (≈ 11.7 µM) | 46.8 (≈ 108 µM) | -22 | -4.42 | 23.6 | -21.6 | 6.5 | -5.21 | 6.66 | -3.66 | -8.1 | 5.27 | -1.2 | 3.56 | -11.3 | -1.31 | -4.8 | -4.84 | -5.8 | -4.88 | IC50 [3]: 17 µM; inhibition of growth at 10 µM [22]: 1.64%; inhibition of growth at 10 µM [23]: -14.8%; inhibition of growth at 10 µM [24]: 22.4%
4 | O=[N+]([O-])c1cccc(C2c3sc4ccc(Cl)cc4c3N=C3NN=C(c4cccc(F)c4)N32)c1 (configuration not stated) | 0.23 (≈ 0.481 µM) | 10.5 (≈ 21.9 µM) | -19.6 | 2.2 | 14.8 | -18 | 7.14 | -6.34 | 2.49 | -7.53 | 2.47 | 6.3 | -1.33 | 0.5 | -11.2 | -6.09 | -1.54 | 0.57 | -2.63 | -2.63 | IC50 [3]: 8.47 µM; inhibition of growth at 10 µM [22]: 3.42%; inhibition of growth at 10 µM [23]: 11.3%; inhibition of growth at 10 µM [24]: 24.4%
5 | Cc1cc(C)n(C2=Nc3c(sc4ccc(Cl)cc34)C(c3cccc([N+](=O)[O-])c3)N2)n1 (configuration not stated) | 1.67 (≈ 3.81 µM) | 9.62 (≈ 22 µM) | -7.22 | 3.8 | 24.2 | -4.25 | 10.8 | -5.86 | 5.98 | -2.6 | 2.61 | 7.66 | -3.95 | 0.51 | -3.52 | -4.2 | -2.22 | -2.96 | -4.21 | -2.52 | IC50 [3]: 19.3 µM; inhibition of growth at 10 µM [22]: 5.84%; inhibition of growth at 10 µM [23]: -11.3%; inhibition of growth at 10 µM [24]: 20.6%
6 | O=C1SC2=Nc3c(sc4ccc(Cl)cc34)C(c3ccc4ccccc4c3)N2C1=O (configuration not stated) | 23.3 (≈ 53.6 µM) | 46.7 (≈ 107 µM) | -5.01 | 1.04 | 12.9 | 16.5 | 16.6 | -27.7 | 23.4 | -2.87 | 7.8 | 5.78 | -1.96 | 1.85 | 2.92 | -0.63 | 9.4 | 23.6 | -1.12 | 4.45 | inhibition of growth at 10 µM [22]: 13.2%; inhibition of growth at 10 µM [23]: -1.57%; inhibition of growth at 10 µM [24]: 68.7%
